System: HCV 1a genotype replicon (Huh-1a7 cell line, strain H77)
Test: HCV Replicon Assay qRT-PCR, genotype 1a
Type: cell-based
Settings: Hepatitis C virus, read-out: 1a EC50
From the text: HCV replicon cell lines (kindly provided by R. Bartenschlager) isolated from colonies as described by Lohman et al. (Lohman et al. (1999) Science 285: 110-113, expressly incorporated by reference in its entirety) and used for all experiments. One of the HCV replicon cell lines (strain Conl, genotype 1b) has the nucleic acid sequence set forth in EMBL Accession No.: AJ242651, the coding sequence of which is from nucleotides 1801 to 8406. Another replicon cell line (strain H77, genotype 1a) was constructed as described by Yi et. al. (Yi et. al. (2004) Journal of Virology 78(15):7904-15). […]
EC50 values of single agent compounds were determined by HCV RNA detection using quantitative RT-PCR, according to the manufacturer's instructions, with a TAQMAN® One-Step RT-PCR Master Mix Reagents Kit (Cat#AB 4309169, Applied Biosystems) on an ABI Model 7500 thermocycler. EC50 values of combinations are similarly determined by HCV RNA detection using quantitative RT-PCR. The TAQMAN primers to use for detecting and quantifying HCV RNA obtained from Integrated DNA Technologies. HCV RNA is normalized to GAPDH RNA levels in drug-treated cells, which is detected and quantified using the Human GAPDH Endogenous Control Mix (Applied Biosystems, AB 4310884E). […] Chemical agent cytotoxicity is evaluated using an MTS assay according to the manufacturer's directions (Promega). […]

`[2H]c1cn([C@@H]2O[C@H](CO[P@@](=O)(N[C@@H](C)C(=O)OC(C)C)Oc3ccccc3)C(O)C2(C)F)c(=O)[nH]c1=O` (stereo partly shown) [Example 1] showed an EC50 of 100 to 1000 nM.

Source: US10034893B2, “5, 6-D2 uridine nucleoside/tide derivatives” (priority 2013, dated 2018)
